Laboratory results: US20080051378A1, “Combinations Comprising Antimuscarinic Agents and Corticosteroids” (priority 2004, published 2008)

Test system: ovoalbumin-sensitized guinea-pig isolated tracheal rings
Assay: Inhibition of the antigen (ovoalbumin)-induced contraction in ovoalbumin-sensitized guinea-pig isolated tracheal rings
Details: for CONTRACTILE RESPONSE TO OVOALBUMIN (in mg) (mean ± sem): vehicle 886 ± 108 mg
Protocol: Male Dunkin-Hartley guinea-pigs (weighing 380-420 g) from Harlan Ibérica (St. Feliu de Codines, Spain) are used. They are housed, with free access to food and water, in rooms kept at 22±2° C. under a 12 hours light-dark cycle until the start of the experiment.
The animals are sensitised by means of two sessions of aerosolization with a solution of 5 mg/ml of ovoalbumin on days zero and 7 of the study. The aerosolization procedure consists of two 30-s nebulisations (Efbe air brush apparatus) with an interval of 5 minutes with animals maintained in a plexiglass box for 10 minutes since the beginning of the procedure.
Between days 14 to 20 from the beginning of the experiment the animals are euthanised and the tracheal tissue is removed. A single tracheal ring is excised and suspended in an organ bath containing Krebs solution. Once attached to a force isometric transducer, it is submitted to a basal resting tension of 1 g, equilibrated with a mixture a 5% CO2 in O2 and maintained at 37° C.
The preparations are allowed to equilibrate for a period of not less than 60 minutes and then the vehicle or the compound(s) to be tested are added to the bath. The corticosteroids (if present) are added first, and, after an incubation period of 45 minutes, the M3 antagonist are subsequently added allowing the system to stand for another 15 minutes. At this moment ovoalbumin is added (at a final concentration in the bath of 10 μg/ml) to elicit the contractile response which is measured immediately.
The contractile responses measured with a force isometric transducer are expressed in mg.

[1] = each compound 10 μM in organ bath, corticosteroid added 45 min before, M3 antagonist 15 min before ovoalbumin 10 μg/ml

SMILES | CONTRACTILE RESPONSE TO OVOALBUMIN (in mg) (mean ± sem) [1] [mg] | % INHIBITION OF THE CONTRACTILE RESPONSE (each compound 10 μM in organ bath, corticosteroid added 45 min before, M3 antagonist 15 min before ovoalbumin 10 μg/ml, versus vehicle) [%] | inhibition of the contractile response, comparison in words (text summary of Table 1 and FIG. 1, 10 μM each) | inhibition at 10 µM (Cavia porcellus, each compound 10 μM in organ bath, corticosteroid added 45 min before, M3 antagonist 15 min before ovoalbumin 10 μg/ml, versus vehicle, read-out: % INHIBITION OF THE CONTRACTILE RESPONSE) [%]
C[C@H]1C[C@H]2[C@@H]3CCC4=CC(=O)C=C[C@]4(C)[C@@]3(Cl)[C@@H](O)C[C@]2(C)[C@@]1(O)C(=O)CO [BECLOMETHASONE, beclomethasone] | 778 ± 83 | 12 | smaller effect | –
CCCC1O[C@@H]2C[C@H]3[C@@H]4CCC5=CC(=O)C=C[C@]5(C)[C@H]4[C@@H](O)C[C@]3(C)[C@]2(C(=O)CO)O1 (some centres unmarked) [BUDESONIDE, budesonide] | 435 ± 68 | – | – | 51
